Where two headings read alike, the source gives them in different places.
Legend:
[1] = test system: 293FT/ACE2/TMPRSS2/DSP1-7 cells; conditions: 2 days; for cell viability: at concentrations above 40 µM; for CC50: 293FT/ACE2/TMPRSS2/DSP1-7 cells; for CC50 / concentration above which cytotoxicity was exhibited: WST-8
[2] = in vitro; conditions: human
[3] = test system: SARS-CoV-2 S protein-mediated cell-cell fusion; test: microbe, parasite or virus in culture; assay type: cell-based
[4] = test system: 293FT/ACE2/TMPRSS2/DSP1-7 cells; test: Quantification of sphingolipids by LC-MS/MS in 293FT/ACE2/TMPRSS2/DSP1-7 cells; assay type: cell-based; conditions: for reduction in total sphingolipid levels: 40 µM, vs DMSO
[5] = test system: 293FT/ACE2/TMPRSS2/DSP1-7 cells; test: Cellular membrane fluidity with lipophilic pyrene probe; assay type: cell-based; conditions: for decrease in membrane fluidity: 2 days, compared with DMSO
[6] = test system: ACE2; test: Cell surface expression of ACE2 by flow cytometry; assay type: cell-based; conditions: 293FT/ACE2/TMPRSS2/DSP1-7 cells, 5 µM, compared with DMSO or 10 µM GT11
[7] = test system: VeroE6^TMPRSS2 cells; test: WST-8 cytotoxicity assay in VeroE6^TMPRSS2 cells; assay type: cell-based; conditions: 3 days; for concentration above which cytotoxicity was exhibited: WST-8
[8] = test system: SARS-CoV-2 NCGM-05-2N strain; test: microbe, parasite or virus in culture; assay type: cell-based
[9] = test system: VeroE6^TMPRSS2 cells; test: Quantification of sphingolipids by LC-MS/MS in VeroE6^TMPRSS2 cells; assay type: cell-based; conditions: 3 days
[10] = test system: ACE2; assay type: cell-based; conditions: 5 µM 4-HPR vs DMSO
[11] = test system: HEK293FT cells expressing DSP1-7 and DSP8-11; assay type: cell-based; conditions: 2 days treatment
[12] = cited from earlier work
[13] = Severe acute respiratory syndrome coronavirus 2, 48 h

SMILES | cell viability [1] | CC50 [2] [µM] | antimembrane fusion activity [3] | EC50 [3, 13] [µM] | CC50 [1] [µM] | EC50 [3] [µM] | concentration above which cytotoxicity was exhibited [1] | further results
O[C@H]1[C@H](O)[C@@H](O)[C@@H]2O[C@@H]2[C@@H]1O (racemic) [CBE, conduritol B epoxide] | unaffected | > 40 | little or no antimembrane fusion activity | > 40 | – | – | – | –
CCCCCCCCCCCCCCCC(=O)NC(CN1CCOCC1)C(O)c1ccccc1 (stereo not drawn) [erythro-PPMP] | – | – | – | – | 35.8 | 9.1 | – | levels of GlcCer ([4]; 10 µM, compared to DMSO-treated cells): decreased
CCCCCCCCCCCC(=O)N[C@@H](CO)C[C@H](O)c1ccccc1 [HPA12] | unaffected | – | little or no antimembrane fusion activity | – | > 40 | > 40 | – | –
Oc1ccc(Nc2nc(-c3ccc(Cl)cc3)cs2)cc1 [SKI-II] | – | – | little or no antimembrane fusion activity | – | > 40 | > 10 | above 20 µM | –
CC1=C(/C=C/C(C)=C/C=C/C(C)=C/C(=O)Nc2ccc(O)cc2)C(C)(C)CCC1 [4-HPR, N-(4-Hydroxyphenyl) retinamide] | – | 11.5 | – | 4.1 | – | – | above 10 µM | decrease in membrane fluidity ([5]; 2.5 µM): ~20%; decrease in membrane fluidity ([5]; 5 µM): about 50%; ACE2 expression levels on cell surface [6]: No significant differences; concentration above which cytotoxicity was exhibited [7]: above 10 µM; antiviral activity [8]: no antiviral activity; EC50 ([8]; Severe acute respiratory syndrome coronavirus 2, VeroE6/TMPRSS2): 4.4 µM; ratio of saturated sphinganine-based lipids to total sphingolipids ([4]; 2.5 µM 4-HPR, 2 days): ~10%; ratio of saturated sphinganine-based lipids to total sphingolipids ([4]; 5 µM 4-HPR, 2 days): ~20%; ratio of saturated sphinganine-based lipids to total sphingolipids ([9]; 1.3 µM): 12%; ratio of saturated sphinganine-based lipids to total sphingolipids ([9]; 2.5 µM): 17%; ratio of saturated sphinganine-based lipids to total sphingolipids ([9]; 5 µM): 25%; inhibition of DSP activity (cell-cell fusion) [3]: more than 50%; ACE2 localization in the membrane microdomain [10]: no dramatic difference; luciferase activity in cells harboring preformed DSP1-7/DSP8-11 reporter complex [11]: not affected; toxicity profile in clinical trials and long-term treatments [12]: low-toxicity profile; day 6 mean peak plasma concentration ([12]; oral powder, 1,500 mg/m^2 per day, patients with relapsed/refractory neuroblastoma): 21 µM
CN(C)CCC=C1c2ccccc2CCc2ccccc21 [Amitriptyline] | unaffected | > 40 | little or no antimembrane fusion activity | > 40 | – | – | – | –
COc1ccc(/C=C/C(=O)c2c(-c3ccccc3)c3ccccc3[nH]c2=O)cc1 [Ceranib-2] | – | – | little or no antimembrane fusion activity | – | 26.9 | > 1.3 | above 2.5 µM | –
CCCCCCCCCCCCC/C=C/[C@@H](O)[C@H](CO)NC(=O)CCCCCCC [C8-Cer, N-Octanoyl-d-erythro-sphingosine] | – | – | – | – | – | – | – | decrease in ratio of saturated sphinganine-based lipids to total sphingolipids ([4]; 10 µM C8-Cer with 5 µM 4-HPR, compared to 4-HPR treated cells): approximately 74%; cell-cell fusion efficiencies [3]: no significant differences
O=C(/C=C/c1ccc(/C=C/C(=O)Nc2ccc(C3=NCCN3)cc2)cc1)Nc1ccc(C2=NCCN2)cc1 [GW4869] | – | – | little or no antimembrane fusion activity | – | > 40 | > 10 | above 20 µM | –
CCCCCCCCc1ccc(CCC(N)(CO)CO)cc1 [FTY720] | – | 12.5 | little or no antimembrane fusion activity | > 5 | – | – | above 10 µM | –
CCCCCCCCCCCCCC1=C([C@H](O)[C@@H](CO)NC(=O)CCCCCCC)C1 [GT11] | – | – | little or no antimembrane fusion activity | – | 20.3 | > 10 | above 20 µM | membrane fluidity ([5]; 10 µM GT11 compared with 2.5 µM 4-HPR): not significantly different; concentration above which cytotoxicity was exhibited [7]: above 10 µM; antiviral activity [8]: no antiviral activity; ratio of saturated sphinganine-based lipids to total sphingolipids ([4]; 10 µM GT11, 2 days): ~10%
CCCCCCCCCCCCCCCC(=O)NC(CN1CCOCC1)C(O)c1ccccc1 (stereo not drawn) [threo-PPMP, 1-phenyl-2-palmitoylamino-3-morpholino-1-propanol] | – | 25.6 | – | 8.7 | – | – | above 20 µM | concentration above which cytotoxicity was exhibited [7]: above 20 µM; antiviral activity [8]: did not exhibit antiviral activity; reduction in total GlcCer levels ([9]; compared to DMSO): approximately 60%; inhibition of DSP activity (cell-cell fusion) [3]: more than 50%; luciferase activity in cells harboring preformed DSP1-7/DSP8-11 reporter complex [11]: not affected
CCCCCCC(=O)CCCCCC/C=C/C[C@@H](O)[C@H](O)[C@@](N)(CO)C(=O)O [Myriocin] | unaffected | > 40 | little or no antimembrane fusion activity | > 40 | – | – | – | effect on cell viability ([7]; at a concentration above 20 µM): no effect; antiviral activity [8]: did not exhibit antiviral activity; reduction in total sphingolipid levels ([4]; 2 days): approximately 65%; reduction in total sphingolipid levels ([9]; vs DMSO): approximately 50%
CCCC[C@@H](C)[C@@H](OC(=O)C[C@@H](CC(=O)O)C(=O)O)[C@H](C[C@@H](C)C[C@H](O)CCCC[C@@H](O)C[C@H](O)[C@H](C)N)OC(=O)C[C@@H](CC(=O)O)C(=O)O [Fumonisin B1] | unaffected | – | little or no antimembrane fusion activity | – | > 40 | > 40 | – | reduction in total sphingolipid levels ([4]; 2 days): ~79%

Reference: PMC8354230 (Journal of Virology, 2021)
